Patent US20230233569A1 (Revolution Medicines, Inc., priority 2020, published 2023)
Several values for one entry are separate records, joined by “and”; a condition that tells them apart may be missing. Identical values can stand only once.

Tests used:
[1] = test system: K-Ras G12C (NCI-H358 cells); assay: Potency assay: pERK (AlphaLISA SureFire or In-Cell Western); type: cell-based; conditions: Homo sapiens, NCI-H358; H358 KRAS G12C; read-out: pERK EC50
Description: (§1) The purpose of this assay is to measure the ability of test compounds to inhibit K-Ras in cells. […] This procedure measures a decrease in cellular pERK in response to test compounds.
(§2) NCI-H358 cells were grown and maintained using media and procedures recommended by the ATCC. On the day prior to compound addition, cells were plated in 384-well cell culture plates (40 μl/well) and grown overnight in a 37° C., 5% CO2 incubator. Test compounds were prepared in 10, 3-fold dilutions in DMSO, with a high concentration of 10 mM. On the day of assay, 40 nL of test compound was added to each well of cell culture plate using an Echo550 liquid handler (LabCyte®). Concentrations of test compound were tested in duplicate. After compound addition, cells were incubated 4 hours at 37° C., 5% CO2. Following incubation, culture medium was removed and cells were washed once with phosphate buffered saline.
(§3) In some experiments, cellular pERK level was determined using the AlphaLISA SureFire Ultra p-ERK1/2 Assay Kit (PerkinElmer). Cells were lysed in 25 μL lysis buffer, with shaking at 600 RPM at room temperature. […] After a 2-hour incubation in the dark, 5 μL donor mix was added, plate was sealed, and incubated 2 hours at room temperature. Signal was read on an Envision plate reader (PerkinElmer) using standard AlphaLISA settings. Analysis of raw data was carried out in Excel (Microsoft) and Prism (GraphPad). Signal was plotted vs. the decadal logarithm of compound concentration, and IC50 was determined by fitting a 4-parameter sigmoidal concentration response model.
In other experiments, cellular pERK was determined by In-Cell Western. […] Fixed cells were washed 4 times for 5 minutes with TBS containing 0.1% Triton X-100 (TBST) and then blocked with 100 μL Odyssey blocking buffer (LI-COR) for 60 minutes at room temperature. […] Cells were washed 4 times for 5 minutes with TBST. Secondary antibody (IR-800CW rabbit, LI-COR, diluted 1:800) and DNA stain DRAQ5 (LI-COR, diluted 1:2000) were added and incubated 1-2 hours at room temperature. Cells were washed 4 times for 5 minutes with TBST. Plates were scanned on a LI-COR Odyssey CLx Imager. Analysis of raw data was carried out in Excel (Microsoft) and Prism (GraphPad). Signal was plotted vs. the decadal logarithm of compound concentration, and IC50 was determined by fitting a 4-parameter sigmoidal concentration response model.
as §1
as §2, with “mM. On day of” for “mM. On the day of”, “assay, 40 nl of test” for “assay, 40 nL of test”
as §3, with “μl” for “μL”, “sealed” for “sealed,”

NCI-H358 (K-Ras G12C) = assay: CellTiter-Glo cell viability assay, 5-day treatment; type: cell-based; conditions: Homo sapiens, NCI-H358, H358, K-Ras G12C; read-out: Additional H358 Cell Viability assay data (K-Ras G12C, IC50)
How it was run: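 Viability is read as luminescence on day 5 after direct compound addition to plated cells, following about 30 minutes' room-temperature equilibration. Each signal is scaled to mean DMSO as 100%.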

KRAS G12C = KRAS G12C (Homo sapiens, UniProt P01116+P62937, G12C); assay: Disruption of BRAF RBD interaction with Ras (FRET / MOA assay, with Cyclophilin A); type: biochemical; conditions: KRAS G12C; read-out: KRAS G12C FRET data IC50
How it was run: (§4)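 Measured via TR-FRET after 3 h at 25 °C with compound (30 μM top, threefold serial steps, ten concentrations) plus K-Ras, Cyclophilin A and BRAF RBD, followed by 1.5 h with anti-His europium (10 nM) and anti-GST allophycocyanin (50 nM). Signal loss versus DMSO gave IC50.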

KRAS G12D = KRAS G12D (Homo sapiens, UniProt P01116+P62937, G12D); assay: as above; type: biochemical; conditions: read-out: KRAS G12D FRET data, IC50
How it was run: as §4

KRAS G12S = KRAS G12S (Homo sapiens, UniProt P01116+P62937, G12S); assay: as above; type: biochemical; conditions: read-out: KRAS G12S FRET data, IC50
How it was run: as §4

KRAS G12V = KRAS G12V (Homo sapiens, UniProt P01116+P62937, G12V); assay: as above; type: biochemical; conditions: KRAS G12V; read-out: KRAS G12V FRET data IC50
How it was run: as §4

KRAS G13C = KRAS G13C (Homo sapiens, UniProt P01116+P62937, G13C); assay: as above; type: biochemical; conditions: KRAS G13C; read-out: KRAS G13C FRET data IC50
How it was run: as §4

KRAS G13D = KRAS G13D (Homo sapiens, UniProt P01116+P62937, G13D); assay: as above; type: biochemical; conditions: KRAS G13D; read-out: KRAS G13D FRET data IC50
How it was run: as §4

KRAS WT = KRAS WT (Homo sapiens, UniProt P01116+P62937); assay: as above; type: biochemical; conditions: KRAS WT; read-out: KRAS WT FRET data IC50
How it was run: as §4

NRAS G12C = NRAS G12C (Homo sapiens, UniProt P01111+P62937, G12C); assay: as above; type: biochemical; conditions: NRAS G12C; read-out: NRAS G12C FRET data IC50
NRAS G12C, sequence (P01111 whole entry G12C): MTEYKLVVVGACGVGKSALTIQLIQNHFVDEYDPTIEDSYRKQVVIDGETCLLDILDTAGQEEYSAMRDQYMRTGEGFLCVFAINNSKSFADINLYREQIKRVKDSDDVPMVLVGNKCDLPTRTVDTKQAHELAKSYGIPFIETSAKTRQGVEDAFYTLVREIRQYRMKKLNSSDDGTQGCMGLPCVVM
NRAS G12C, sequence (P62937 whole entry): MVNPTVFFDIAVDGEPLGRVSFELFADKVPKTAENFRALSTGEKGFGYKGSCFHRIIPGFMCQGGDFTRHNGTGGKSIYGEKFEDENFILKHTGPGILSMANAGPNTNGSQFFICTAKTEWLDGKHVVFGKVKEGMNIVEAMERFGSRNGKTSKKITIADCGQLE

KRAS G13C, sequence (P01116 1-169 isoform P01116-2 G13C): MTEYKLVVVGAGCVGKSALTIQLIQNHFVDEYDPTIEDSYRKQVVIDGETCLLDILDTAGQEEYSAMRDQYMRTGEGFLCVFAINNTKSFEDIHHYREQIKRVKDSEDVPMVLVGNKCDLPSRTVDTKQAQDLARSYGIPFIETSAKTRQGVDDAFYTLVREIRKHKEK
KRAS G13C, sequence (P62937 whole entry): as the sequence (P62937 whole entry) above
KRAS G12S, sequence (P01116 1-169 isoform P01116-2 G12S limits assumed): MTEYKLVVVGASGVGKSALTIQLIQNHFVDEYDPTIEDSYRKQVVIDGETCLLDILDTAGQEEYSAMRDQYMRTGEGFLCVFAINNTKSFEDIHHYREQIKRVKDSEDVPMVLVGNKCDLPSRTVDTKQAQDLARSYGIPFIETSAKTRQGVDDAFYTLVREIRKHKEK
KRAS G12S, sequence (P62937 whole entry): as the sequence (P62937 whole entry) above
KRAS G12D, sequence (P01116 1-169 isoform P01116-2 G12D limits assumed): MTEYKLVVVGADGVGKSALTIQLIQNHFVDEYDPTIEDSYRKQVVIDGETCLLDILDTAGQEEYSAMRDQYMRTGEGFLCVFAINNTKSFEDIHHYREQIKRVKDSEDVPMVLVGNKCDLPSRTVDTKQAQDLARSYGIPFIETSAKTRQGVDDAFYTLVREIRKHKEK
KRAS G12D, sequence (P62937 whole entry): as the sequence (P62937 whole entry) above
KRAS G13D, sequence (P01116 1-169 isoform P01116-2 G13D limits assumed): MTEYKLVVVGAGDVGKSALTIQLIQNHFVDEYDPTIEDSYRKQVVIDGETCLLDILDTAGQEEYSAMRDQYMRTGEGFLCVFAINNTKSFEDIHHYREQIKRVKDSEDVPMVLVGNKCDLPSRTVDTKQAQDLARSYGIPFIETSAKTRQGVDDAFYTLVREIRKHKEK
KRAS G13D, sequence (P62937 whole entry): as the sequence (P62937 whole entry) above
KRAS WT, sequence (P01116 1-169 isoform P01116-2 limits assumed): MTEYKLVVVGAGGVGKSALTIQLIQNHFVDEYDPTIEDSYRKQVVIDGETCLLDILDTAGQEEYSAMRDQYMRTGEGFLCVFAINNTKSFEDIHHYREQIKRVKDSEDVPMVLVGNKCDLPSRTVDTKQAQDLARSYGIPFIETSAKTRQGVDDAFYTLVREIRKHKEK
KRAS WT, sequence (P62937 whole entry): as the sequence (P62937 whole entry) above
KRAS G12C, sequence (P01116 1-169 isoform P01116-2 G12C): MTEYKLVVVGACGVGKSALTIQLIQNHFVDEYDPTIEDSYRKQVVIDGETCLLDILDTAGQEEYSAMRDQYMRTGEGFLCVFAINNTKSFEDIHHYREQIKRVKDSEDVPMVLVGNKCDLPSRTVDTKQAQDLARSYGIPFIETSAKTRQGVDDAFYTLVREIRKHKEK
KRAS G12C, sequence (P62937 whole entry): as the sequence (P62937 whole entry) above
KRAS G12V, sequence (P01116 1-169 isoform P01116-2 G12V limits assumed): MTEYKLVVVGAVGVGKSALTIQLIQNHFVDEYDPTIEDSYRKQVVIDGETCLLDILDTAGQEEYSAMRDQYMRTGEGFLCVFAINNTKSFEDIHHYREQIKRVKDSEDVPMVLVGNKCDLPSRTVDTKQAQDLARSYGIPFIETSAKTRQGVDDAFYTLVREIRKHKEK
KRAS G12V, sequence (P62937 whole entry): as the sequence (P62937 whole entry) above

| Compound | EC50 [1] [nM] | IC50 (NCI-H358 (K-Ras G12C)) [nM] | IC50 (KRAS G12C) [nM] | IC50 (KRAS G12D) | IC50 (KRAS G12S) [nM] | IC50 (KRAS G12V) | IC50 (KRAS G13C) | IC50 (KRAS G13D) | IC50 (KRAS WT) | IC50 (NRAS G12C) [nM] |
| --- | --- | --- | --- | --- | --- | --- | --- | --- | --- | --- |
| CCn1c(-c2cccnc2[C@H](C)OC)c2c3cc(ccc31)-c1cccc(c1)C[C@H](NC(=O)[C@H](C(C)C)N(C)C(=O)[C@@H]1CCN(C(=O)C#CC(C)(C)N3CCC3)C1)C(=O)N1CCC[C@H](N1)C(=O)OCC(C)(C)C2 [Example A476] | < 5000 | < 10 | 10 to 100 | 1000 to 10000 nM | 1000 to 10000 | 1000 to 10000 nM | 100 to 1000 nM | 1000 to 10000 nM | 1000 to 10000 nM | 10 to 100 |
| CCn1c(-c2cccnc2[C@H](C)OC)c2c3cc(ccc31)-c1cc(O)cc(c1)C[C@H](NC(=O)[C@H](C(C)C)N(C)C(=O)c1nc(NC(=O)/C=C/CN(C)C)cs1)C(=O)N1CCC[C@H](N1)C(=O)OCC(C)(C)C2 [Example A258] | < 5000 | 100 to 1000 | 100 to 1000 | 1000 to 10000 nM and > 10000 nM | 1000 to 10000 | 100 to 1000 nM and 1000 to 10000 nM | < 10 nM and 10 to 100 nM | 100 to 1000 nM and 1000 to 10000 nM | 100 to 1000 nM and 1000 to 10000 nM | 100 to 1000 |
| CC#C[S+]([O-])N1CC[C@H](C(=O)N(C)[C@H](C(=O)N[C@H]2Cc3cccc(c3)-c3ccc4c(c3)c(c(-c3cccnc3[C@H](C)OC)n4CC)CC(C)(C)COC(=O)[C@@H]3CCCN(N3)C2=O)C2CCCC2)C1 (some centres unmarked) [Example A310] | < 5000 | 10 to 100 | 100 to 1000 | > 10000 nM | 1000 to 10000 | 1000 to 10000 nM | 1000 to 10000 nM | > 10000 nM | 1000 to 10000 nM | 100 to 1000 |
| C=CC(=O)N(C)CCN(C)C(=O)N(C)[C@H](C(=O)N[C@H]1Cc2nc(cs2)-c2ccc3c(c2)c(c(-c2cccnc2[C@H](C)OCC)n3CC)CC(C)(C)COC(=O)[C@@H]2CCCN(N2)C1=O)C(C)C [Example A437] | < 5000 | 10 to 100 | 10 to 100 | 1000 to 10000 nM | 100 to 1000 | 100 to 1000 nM | 100 to 1000 nM | 1000 to 10000 nM | 100 to 1000 nM | 10 to 100 |
| C=CC(=O)N1CC[C@H](C(=O)N(C)[C@H](C(=O)N[C@H]2Cc3cc(O)cc(c3)-c3ccc4c(c3)c(c(-c3cc(CN(C)C)cnc3COC)n4CC)CC(C)(C)COC(=O)[C@@H]3CCCN(N3)C2=O)C(C)C)C1 [Example A149] | < 5000 | 10 to 100 | 10 to 100 | 1000 to 10000 nM | 100 to 1000 | 100 to 1000 nM | 100 to 1000 nM | 100 to 1000 nM | 100 to 1000 nM | 10 to 100 |

Continued, values first:

| EC50 [1] [nM] | IC50 (NCI-H358 (K-Ras G12C)) [nM] | IC50 (KRAS G12C) [nM] | IC50 (KRAS G12D) | IC50 (KRAS G12S) [nM] | IC50 (KRAS G12V) | IC50 (KRAS G13C) | IC50 (KRAS G13D) | IC50 (KRAS WT) | IC50 (NRAS G12C) [nM] | Compound |
| --- | --- | --- | --- | --- | --- | --- | --- | --- | --- | --- |
| < 5000 | 100 to 1000 | 10 to 100 | 1000 to 10000 nM | 100 to 1000 | 100 to 1000 nM | 100 to 1000 nM | 100 to 1000 nM | 100 to 1000 nM | 10 to 100 | CCn1c(-c2cccnc2COC)c2c3cc(ccc31)-c1cc(O)cc(c1)C[C@H](NC(=O)[C@H](C(C)C)N(C)C(=O)[C@H]1CCN(C(=O)/C=C\CN(C)C)C1)C(=O)N1CCC[C@H](N1)C(=O)OCC(C)(C)C2 [Example A164] |
| < 5000 | 10 to 100 | 10 to 100 | 1000 to 10000 nM | > 10000 | > 10000 nM | 1000 to 10000 nM | 1000 to 10000 nM | > 10000 nM | 100 to 1000 | CCn1c(-c2cccnc2COC)c2c3cc(ccc31)-c1cc(O)cc(c1)C[C@H](NC(=O)[C@@H](C(C)C)N(C)C(=O)[C@H]1CCN(C(=O)C#CCN(C)C)C1)C(=O)N1CCC[C@H](N1)C(=O)OCC(C)(C)C2 [Example A156] |
| < 5000 | < 10 | < 10 | 1000 to 10000 nM | 1000 to 10000 | 100 to 1000 nM | 100 to 1000 nM | 1000 to 10000 nM | 1000 to 10000 nM | < 10 | CCn1c(-c2cccnc2COC)c2c3cc(ccc31)-c1cc(O)cc(c1)C[C@H](NC(=O)[C@H](C(C)C)N(C)C(=O)[C@H]1CCN(C(=O)C#CC(C)(C)N(C)C)C1)C(=O)N1CCC[C@H](N1)C(=O)OCC(C)(C)C2 [Example A162] |
| < 5000 | > 1000 | 100 to 1000 | > 10000 nM | > 10000 | > 10000 nM | 1000 to 10000 nM | > 10000 nM | > 10000 nM | 1000 to 10000 | C=CC(=O)N1CC(NC[C@H](C(=O)N[C@H]2Cc3cc(O)cc(c3)-c3ccc4c(c3)c(c(-c3cccnc3COC)n4CC)CC(C)(C)COC(=O)[C@@H]3CCCN(N3)C2=O)C(C)C)C1 [Example A174] |
| < 5000 | 100 to 1000 | 10 to 100 | > 10000 nM | > 10000 | > 10000 nM | 1000 to 10000 nM | > 10000 nM | > 10000 nM | 10 to 100 | CCn1c(-c2cccnc2COC)c2c3cc(ccc31)-c1cc(O)cc(c1)C[C@H](NC(=O)[C@@H](C(C)C)N(C)C(=O)[C@H]1CCN(C(=O)C#CC(C)N3CCOCC3)C1)C(=O)N1CCC[C@H](N1)C(=O)OCC(C)(C)C2 (some centres unmarked) [Example A200] |
| < 5000 | 10 to 100 | 100 to 1000 | > 10000 nM | 1000 to 10000 | 1000 to 10000 nM | 1000 to 10000 nM | 1000 to 10000 nM | 1000 to 10000 nM | 100 to 1000 | C=CC(=O)N1CC[C@H](C(=O)N(C)[C@H](C(=O)N[C@H]2Cc3cc(O)cc(c3)-c3ccc4c(c3)c(c(-c3cccnc3[C@H](C)OC)n4C)CC(C)(C)COC(=O)[C@@H]3CCCN(N3)C2=O)C(C)C)C1 [Example A197] |
